Experimental data as given in US20050239656A1, “Pyridine compounds or salts thereof and herbicides containing the same” (priority 2002, published 2005).

Tests used:
barnyardgrass [1] = assay: Test Example 2: soil surface treatment, upland pot test; format: in vivo, Echinochloa crus-galli L.
Summary of the method: (§1)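 Pre-emergence soil-surface spray, 1 d after sowing; 1/170,000 ha pots, upland soil; WP or EC formulation, set a.i. rate, 1,500 L/ha water; visual growth-control score 0–100% at days 20–28 post-treatment.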

crabgrass [2] = assay: as above; format: in vivo, Digitaria sanguinalis L.
Summary of the method: as §1

green foxtail [3] = assay: as above; format: in vivo, Setaria viridis L.
Summary of the method: as §1

redroot pigweed [4] = assay: as above; format: in vivo, Amaranthus retroflexus L.
Summary of the method: as §1

prickly sida [5] = assay: as above; format: in vivo, Sida spinosa L.
Summary of the method: as §1

velvetleaf [6] = assay: as above; format: in vivo, Abutilon theophrasti MEDIC.
Summary of the method: as §1

rice [7] = assay: as above; format: in vivo, Oryza sativa L.
Summary of the method: as §1

wheat = assay: as above; format: in vivo, Triticum spp.; settings: observed 20th to 28th day
Source text: Upland field soil was put into a 1/170,000 ha pot, and seed of various plants (barnyardgrass, crabgrass, green foxtail, redroot pigweed, prickly sida, velvetleaf, rice, wheat, corn, soybean) were sown. On the 1st day after the sowing, a wettable powder or emulsifiable concentrate having the compound of the present invention formulated in accordance with a usual formulation method, was weighed so that the active ingredient would be a predetermined amount, and diluted with water in an amount of 1,500 L/ha. The herbicide thus adjusted was applied by a small size sprayer for soil surface treatment. On the 20th to 28th days after the application of the herbicide, the growth of the respective plants was visually observed, and the herbicidal effects were evaluated by the growth controlling degrees (%) ranging from 0 (equivalent to the non-treated plot) to 100 (complete kill), whereby the results shown in Table 4, were obtained.

corn [8] = assay: as above; format: in vivo, Zea mays L.
Summary of the method: as §1

soybean [9] = assay: as above; format: in vivo, Glycine max Merr.
Summary of the method: as §1

barnyardgrass [10] = assay: Test Example 3: paddy pot test, application under submerged conditions; format: in vivo, Echinochloa crus-galli L.; settings: active ingredient 250 g/ha; submerged application at 0.5 leaf stage; visually observed 14 days after application; 0 = non-treated, 100 = complete kill
Summary of the method: (§2)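 After sowing seeds and planting wapato tubers in flooded paddy soil, an aqueous dilution of the formulated compound was added to the 3–4 cm flood water at early leaf stage. Percent growth control relative to the untreated plot was assessed visually on day 14.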

japanese bulrush = assay: as above; format: in vivo, Scirpus juncoides; settings: active ingredient 250 g/ha; submerged application at 0.5 leaf stage; visually observed 14 days after application; 0 = non-treated, 100 = complete kill
Summary of the method: as §2

rice (var. Nihonbare) = assay: Test Example 3: paddy pot test, transplanted rice; format: in vivo, Oryza sativa L.; settings: active ingredient 250 g/ha, applied 4th day after transplantation, visually observed 21st day after application, 0 = non-treated, 100 = complete kill
Summary of the method: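 Rice (2-leaf stage) was transplanted 3 cm deep into puddled, leveled paddy soil under 3–4 cm flooding. On day 4 after transplanting, diluted wettable powder or emulsifiable concentrate was pipetted onto the water at a predetermined active-ingredient dose. Growth control (0 = untreated, 100 = complete kill) was scored visually 21 days later.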

barnyardgrass [11] = assay: Test Example 1: foliage treatment, upland pot test; format: in vivo, Echinochloa crus-galli L.; settings: active ingredient 500 g/ha, observed 18th to 23rd day, 0 = non-treated, 100 = complete kill
Summary of the method: (§3)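 Pots of upland field soil were sown and sprayed post-emergence at soybean 0.1–0.4, wheat 1.3–2.4, rice 1.2–2.6 and barnyardgrass 1.3–2.8 leaf stages. Formulations were diluted in water at 500 L/ha with 0.1% (v/v) spreader. Growth control (0 = untreated, 100 = complete kill) was judged by eye 18–23 days later.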

crabgrass [12] = assay: Test Example 1: foliage treatment, upland pot test; format: in vivo, Digitaria sanguinalis L.; settings: active ingredient 500 g/ha, observed 18th to 23rd day, 0 = non-treated, 100 = complete kill
green foxtail [13] = assay: Test Example 1: foliage treatment, upland pot test; format: in vivo, Setaria viridis L.; settings: active ingredient 500 g/ha, observed 18th to 23rd day, 0 = non-treated, 100 = complete kill
redroot pigweed [14] = assay: Test Example 1: foliage treatment, upland pot test; format: in vivo, Amaranthus retroflexus L.; settings: active ingredient 500 g/ha, observed 18th to 23rd day, 0 = non-treated, 100 = complete kill
prickly sida [15] = assay: Test Example 1: foliage treatment, upland pot test; format: in vivo, Sida spinosa L.; settings: active ingredient 500 g/ha, observed 18th to 23rd day, 0 = non-treated, 100 = complete kill
velvetleaf [16] = assay: Test Example 1: foliage treatment, upland pot test; format: in vivo, Abutilon theophrasti MEDIC.; settings: active ingredient 500 g/ha, observed 18th to 23rd day, 0 = non-treated, 100 = complete kill
rice [17] = assay: Test Example 1: foliage treatment, upland pot test; format: in vivo, Oryza sativa L.; settings: crop, active ingredient 500 g/ha, observed 18th to 23rd day, 0 = non-treated, 100 = complete kill
Summary of the method: as §3

corn [18] = assay: Test Example 1: foliage treatment, upland pot test; format: in vivo, Zea mays L.; settings: crop, active ingredient 500 g/ha, observed 18th to 23rd day, 0 = non-treated, 100 = complete kill
Summary of the method: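 In this upland pot foliage test, corn plants at 2.1 to 3.2 leaf stages were sprayed by a small size sprayer. The spray was a conventionally formulated wettable powder or emulsifiable concentrate weighed to a set active ingredient amount, diluted in water at 500 L/ha, plus 0.1% (v/v) agricultural spreader. Visual assessment on days 18 to 23 gave growth controlling degree (%), where 0 equals untreated and 100 means complete kill.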

soybean [19] = assay: Test Example 1: foliage treatment, upland pot test; format: in vivo, Glycine max Merr.; settings: crop, active ingredient 500 g/ha, observed 18th to 23rd day, 0 = non-treated, 100 = complete kill
Summary of the method: as §3

japanese ribbon wapato = assay: Test Example 3: paddy pot test, application under submerged conditions; format: in vivo, Sagittaria pygniaea; settings: active ingredient 250 g/ha; submerged application at primary leaf stage; visually observed 14 days after application; 0 = non-treated, 100 = complete kill
Summary of the method: as §2

[20] = active ingredient 500 g/ha, observed 20th to 28th day
[21] = active ingredient 250 g/ha, observed 20th to 28th day
[22] = active ingredient 500 g/ha, observed day 21, 0 = non-treated, 100 = complete kill

SMILES	Growth controlling degree (%) Barnyardgrass (barnyardgrass [10]) [%]	Growth controlling degree (%) Japanese bulrush (japanese bulrush) [%]	Growth controlling degree (%) Rice (rice (var. Nihonbare)) [%]	Growth controlling degree (%) Barnyardgrass (barnyardgrass [11]) [%]	Growth controlling degree (%) Crabgrass (crabgrass [12]) [%]	Growth controlling degree (%) Green foxtail (green foxtail [13]) [%]	Growth controlling degree (%) Redroot pigweed (redroot pigweed [14]) [%]	Growth controlling degree (%) Prickly sida (prickly sida [15]) [%]	Growth controlling degree (%) Velvetleaf (velvetleaf [16]) [%]	Growth controlling degree (%) Rice (rice [17]) [%]	Growth controlling degree (%) Corn (corn [18]) [%]	Growth controlling degree (%) Soybean (soybean [19]) [%]	Growth controlling degree (%) Barnyardgrass (barnyardgrass [1]; [22]) [%]	Growth controlling degree (%) Crabgrass (crabgrass [2]; [22]) [%]	Growth controlling degree (%) Green foxtail (green foxtail [3]; [22]) [%]	Growth controlling degree (%) Redroot pigweed (redroot pigweed [4]; [22]) [%]	Growth controlling degree (%) Prickly sida (prickly sida [5]; [22]) [%]	Growth controlling degree (%) Velvetleaf (velvetleaf [6]; [22]) [%]	Growth controlling degree (%) Rice (rice [7]; [22]) [%]	Growth controlling degree (%) Corn (corn [8]; [22]) [%]	other results
CC(C)C(c1cnccc1C(F)(F)F)N(C)S(=O)(=O)c1ccccc1Cl (racemic) [Compound I-126]	–	–	–	–	–	–	–	–	–	–	–	–	–	–	–	–	–	–	–	–	Growth controlling degree (%) Barnyardgrass (barnyardgrass [1]; [20]): 80%; Growth controlling degree (%) Crabgrass (crabgrass [2]; [20]): 30%; Growth controlling degree (%) Green foxtail (green foxtail [3]; [20]): 70%; Growth controlling degree (%) Redroot pigweed (redroot pigweed [4]; [20]): 30%; Growth controlling degree (%) Prickly sida (prickly sida [5]; [20]): 50%; Growth controlling degree (%) Velvetleaf (velvetleaf [6]; [20]): 10%; Growth controlling degree (%) Rice (rice [7]; [20]): 20%; Growth controlling degree (%) wheat (wheat; active ingredient 500 g/ha): 10%; Growth controlling degree (%) Corn (corn [8]; [20]): 0%; Growth controlling degree (%) Soyabean (soybean [9]; [20]): 0%
CC(C)C(c1cnccc1C(F)(F)F)N(C)C(=O)Cc1ccc(Br)c(F)c1 (racemic) [Compound I-129]	100	90	0	–	–	–	–	–	–	–	–	–	–	–	–	–	–	–	–	–	Growth controlling degree (%) Barnyardgrass (barnyardgrass [1]; [20]): 98%; Growth controlling degree (%) Crabgrass (crabgrass [2]; [20]): 98%; Growth controlling degree (%) Green foxtail (green foxtail [3]; [20]): 100%; Growth controlling degree (%) Redroot pigweed (redroot pigweed [4]; [20]): 40%; Growth controlling degree (%) Prickly sida (prickly sida [5]; [20]): 70%; Growth controlling degree (%) Velvetleaf (velvetleaf [6]; [20]): 10%; Growth controlling degree (%) Rice (rice [7]; [20]): 30%; Growth controlling degree (%) wheat (wheat; active ingredient 500 g/ha): 30%; Growth controlling degree (%) Corn (corn [8]; [20]): 30%; Growth controlling degree (%) Soyabean (soybean [9]; [20]): 10%
CC(C)C(c1cnccc1C(F)(F)F)N(C)C(=O)Cc1ccc(Br)cc1F (racemic) [Compound I-137]	100	98	0	–	–	–	–	–	–	–	–	–	–	–	–	–	–	–	–	–	Growth controlling degree (%) Barnyardgrass (barnyardgrass [1]; [21]): 98%; Growth controlling degree (%) Crabgrass (crabgrass [2]; [21]): 98%; Growth controlling degree (%) Green foxtail (green foxtail [3]; [21]): 100%; Growth controlling degree (%) Redroot pigweed (redroot pigweed [4]; [21]): 50%; Growth controlling degree (%) Prickly sida (prickly sida [5]; [21]): 50%; Growth controlling degree (%) Velvetleaf (velvetleaf [6]; [21]): 50%; Growth controlling degree (%) Rice (rice [7]; [21]): 40%; Growth controlling degree (%) wheat (wheat; active ingredient 250 g/ha): 30%; Growth controlling degree (%) Corn (corn [8]; [21]): 10%; Growth controlling degree (%) Soyabean (soybean [9]; [21]): 20%
CCC(C)C(c1cnccc1C(F)(F)F)N(C)C(=O)COc1ccccc1 (stereo not drawn) [I-261]	100	95	20	70	60	60	50	60	50	20	10	80	90	100	100	70	98	50	20	20	Growth controlling degree (%) Soyabean (soybean [9]; [22]): 20%; Growth controlling degree (%) Japanese ribbon wapato (japanese ribbon wapato): 70%
CCC(CC)C(c1cnccc1C(F)(F)F)N(C)C(=O)Cc1ccccc1 (stereo not drawn) [I-262]	98	95	0	80	80	70	70	95	90	35	60	80	20	100	95	70	90	60	50	40	Growth controlling degree (%) Soyabean (soybean [9]; [22]): 20%; Growth controlling degree (%) Japanese ribbon wapato (japanese ribbon wapato): 30%
CCC(CC)C(c1cnccc1C(F)(F)F)N(C)C(=O)COc1ccccc1 (stereo not drawn) [I-263]	5	90	0	80	80	70	70	90	95	60	40	80	10	95	60	70	70	40	40	20	Growth controlling degree (%) Soyabean (soybean [9]; [22]): 10%; Growth controlling degree (%) Japanese ribbon wapato (japanese ribbon wapato): 20%
